{
  "source": "patent US4604239A",
  "about": "“Antibiotics” (Eli Lilly and Company, priority 1985, dated 1986)",
  "key": {"electrometric titration": {"test": "electrometric titration", "type": "physicochemical", "conditions": "electrometric titration in 66% dimethylformamide in water", "from_the_text": "Antibiotic A41030 factor A is a white, crystalline solid."}, "[1]": {"system": "Bacteroides melaninogenicus", "test": "agar-dilution MIC", "type": "cell-based", "conditions": "Bacteroides melaninogenicus 2736; Table 14"}, "Peptococcus magnus": {"system": "Peptococcus magnus", "test": "agar-dilution MIC", "type": "cell-based", "conditions": "Table 15", "procedure": "(§1) The MIC values were determined by the agar-dilution method, and are recorded in Table 15, which follows."}, "Peptococcus prevoti [2]": {"system": "Peptococcus prevoti", "test": "agar-dilution MIC", "type": "cell-based", "conditions": "Table 15", "procedure": "as §1"}, "solubility": {"test": "solubility", "type": "physicochemical"}, "Bacteroides corrodens": {"system": "Bacteroides corrodens", "test": "agar-dilution MIC", "type": "cell-based", "conditions": "Bacteroides corrodens 1874; Table 14"}, "Hemophilus influenzae": {"system": "Hemophilus influenzae", "test": "agar-dilution MIC", "type": "cell-based", "conditions": "Table 17"}, "Peptococcus prevoti [3]": {"system": "Peptococcus prevoti", "test": "agar-dilution MIC", "type": "cell-based"}, "Clostridium difficile": {"system": "Clostridium difficile", "type": "cell-based"}, "S. pyogenes": {"system": "S. pyogenes", "test": "experimental bacterial infection in mice", "type": "in vivo", "conditions": "against S. pyogenes in mice; oral"}, "Clostridium septicum": {"system": "Clostridium septicum", "test": "agar-dilution MIC", "type": "cell-based", "conditions": "Clostridium septicum 1128; Table 14"}, "Bacteroides vulgatis": {"system": "Bacteroides vulgatis", "test": "agar-dilution MIC", "type": "cell-based", "conditions": "Bacteroides vulgatis 1211; Table 14"}, "Staphylococcus aureus": {"system": "Staphylococcus aureus", "test": "agar-dilution MIC", "type": "cell-based", "conditions": "in µg/mL"}, "[4]": {"system": "Staphylococcus epidermidis", "test": "agar-dilution MIC", "type": "cell-based", "conditions": "Staphylococcus epidermidis EPI1; Table 17", "from_the_text": "(§2) The agar-dilution procedure described by the International Collaborative study (ICS) group was used to determine the minimum inhibitory concentrations (MIC's)."}, "Streptococcus pneumoniae": {"system": "Streptococcus pneumoniae", "test": "agar-dilution MIC", "type": "cell-based", "conditions": "Streptococcus pneumoniae Park I; Table 17", "from_the_text": "as §2"}, "Bacteroides fragilis": {"system": "Bacteroides fragilis", "test": "agar-dilution MIC", "type": "cell-based", "from_the_text": "as §2"}, "Streptococcus pyogenes": {"system": "Streptococcus pyogenes", "test": "agar-dilution MIC", "type": "cell-based", "conditions": "Streptococcus pyogenes C203; Table 17", "from_the_text": "as §2"}, "[5]": {"system": "Streptococcus sp. (Group D)", "test": "agar-dilution MIC", "type": "cell-based", "conditions": "Table 17", "from_the_text": "as §2"}, "[6]": {"system": "Peptostreptococcus intermedius", "test": "agar-dilution MIC", "type": "cell-based", "conditions": "Table 15"}, "[7]": {"system": "Bacteroides thetaiotaomicron", "type": "cell-based", "from_the_text": "as §2"}, "Clostridium perfringens": {"system": "Clostridium perfringens", "type": "cell-based", "conditions": "Clostridium perfringens 81; Table 14"}, "[8]": {"system": "Fusobacterium necrophorum", "test": "agar-dilution MIC", "type": "cell-based", "conditions": "Fusobacterium necrophorum 6054A; Table 14"}, "Staph. aureus": {"system": "Staph. aureus", "test": "experimental bacterial infection in mice", "type": "in vivo", "conditions": "two doses subcutaneously", "procedure": "All of the A41030 factors tested have shown in vivo antimicrobial activity against experimental bacterial infections. When two doses of test compound were administered subcutaneously to mice in illustrative infections, the activity observed is measured as an ED50 value [effective dose in mg./kg. to protect fifty percent of the test animals: See Warren Wick, et al., J. Bacteriol. 81, 233-235 (1961)]."}},
  "note": "Where two headings read alike, the source gives them in different places.",
  "data": [
    {"substance": "A41030 factor C", "values": [
      {"measurement": "possibly additional pKa's", "setting": "electrometric titration", "value": "> 10"},
      {"measurement": "MIC", "setting": "[1]", "value": 4, "unit": "µg/mL"},
      {"measurement": "MIC", "setting": "Peptococcus magnus; Pc. magnus 1401", "value": 0.25, "unit": "µg/mL"},
      {"measurement": "MIC", "setting": "Peptococcus magnus; Pc. magnus 1421", "value": 0.25, "unit": "µg/mL"},
      {"measurement": "MIC", "setting": "Peptococcus magnus; Pc. magnus 1477", "value": 0.5, "unit": "µg/mL"},
      {"measurement": "MIC", "setting": "Peptococcus prevoti [2]; Pc. prevoti 1293", "value": 0.5, "unit": "µg/mL"},
      {"measurement": "MIC", "setting": "Peptococcus prevoti [2]; Pc. prevoti 1407", "value": 1.0, "unit": "µg/mL"},
      {"measurement": "solubility (solvents)", "setting": "solubility", "value": "soluble in the same solvents as factor A"},
      {"measurement": "MIC", "setting": "Bacteroides corrodens", "value": 32, "unit": "µg/mL"},
      {"measurement": "MIC", "setting": "Hemophilus influenzae; Haemophilus influenzae 251", "value": 4, "unit": "µg/mL"},
      {"measurement": "MIC", "setting": "Hemophilus influenzae; Haemophilus influenzae Brun", "value": 16, "unit": "µg/mL"},
      {"measurement": "MIC", "setting": "Peptococcus prevoti [3]; Pc. prevoti 1281, Table 15", "value": 1.0, "unit": "µg/mL"},
      {"measurement": "MIC", "setting": "Peptococcus prevoti [3]; Peptococcus prevoti 1281, Table 14", "value": "≤ 0.25", "unit": "µg/mL"},
      {"measurement": "MIC", "setting": "Clostridium difficile; Clostridium difficile 78, Table 16", "value": 1.0, "unit": "µg/mL"},
      {"measurement": "MIC", "setting": "Clostridium difficile; Clostridium difficile 107B, Table 16", "value": 1.0, "unit": "µg/mL"},
      {"measurement": "MIC", "setting": "Clostridium difficile; Clostridium difficile 111F, Table 16", "value": 2, "unit": "µg/mL"},
      {"measurement": "MIC", "setting": "Clostridium difficile; Clostridium difficile 1153, Table 16", "value": 2, "unit": "µg/mL"},
      {"measurement": "MIC", "setting": "Clostridium difficile; Clostridium difficile 2634, Table 16", "value": 2, "unit": "µg/mL"},
      {"measurement": "MIC", "setting": "Clostridium difficile; Clostridium difficile 2994, Table 14", "value": 16, "unit": "µg/mL"},
      {"measurement": "MIC", "setting": "Clostridium difficile; Clostridium difficile 3424-5B, Table 16", "value": 1.0, "unit": "µg/mL"},
      {"measurement": "MIC", "setting": "Clostridium difficile; Clostridium difficile 3816, Table 16", "value": 2, "unit": "µg/mL"},
      {"measurement": "MIC", "setting": "Clostridium difficile; Clostridium difficile 3950D, Table 16", "value": 2, "unit": "µg/mL"},
      {"measurement": "MIC", "setting": "Clostridium difficile; Clostridium difficile 6890, Table 16", "value": 2, "unit": "µg/mL"},
      {"measurement": "MIC", "setting": "Clostridium difficile; Clostridium difficile 8484, Table 16", "value": 1.0, "unit": "µg/mL"},
      {"measurement": "MIC", "setting": "Clostridium difficile; Clostridium difficile A-194, Table 16", "value": 2, "unit": "µg/mL"},
      {"measurement": "MIC", "setting": "Clostridium difficile; Clostridium difficile A-195, Table 16", "value": 1.0, "unit": "µg/mL"},
      {"measurement": "MIC", "setting": "Clostridium difficile; Clostridium difficile A-196, Table 16", "value": 2, "unit": "µg/mL"},
      {"measurement": "MIC", "setting": "Clostridium difficile; Clostridium difficile A-279, Table 16", "value": 2, "unit": "µg/mL"},
      {"measurement": "MIC", "setting": "Clostridium difficile; Clostridium difficile A-280, Table 16", "value": 1.0, "unit": "µg/mL"},
      {"measurement": "MIC", "setting": "Clostridium difficile; Clostridium difficile A-281, Table 16", "value": 2, "unit": "µg/mL"},
      {"measurement": "MIC", "setting": "Clostridium difficile; Clostridium difficile WAL-2112, Table 16", "value": 2, "unit": "µg/mL"},
      {"measurement": "MIC", "setting": "Clostridium difficile; Clostridium difficile WAL-3657, Table 16", "value": 2, "unit": "µg/mL"},
      {"measurement": "MIC", "setting": "Clostridium difficile; Clostridium difficile WAL-4268, Table 16", "value": 1.0, "unit": "µg/mL"},
      {"measurement": "in vivo oral activity", "setting": "S. pyogenes", "value": "> 300", "unit": "mg./kg. X 2"},
      {"measurement": "MIC", "setting": "Clostridium septicum", "value": 8, "unit": "µg/mL"},
      {"measurement": "MIC", "setting": "Bacteroides vulgatis", "value": 32, "unit": "µg/mL"},
      {"measurement": "MIC", "setting": "Staphylococcus aureus", "value": 1},
      {"measurement": "MIC", "setting": "[4]", "value": 0.5, "unit": "µg/mL"},
      {"measurement": "MIC", "setting": "Streptococcus pneumoniae", "value": 1, "unit": "µg/mL"},
      {"measurement": "MIC", "setting": "Bacteroides fragilis; B. fragilis 2, 24-hour, Table 12", "value": 32, "unit": "µg/mL"},
      {"measurement": "MIC", "setting": "Bacteroides fragilis; B. fragilis 9, 24-hour, Table 12", "value": 32, "unit": "µg/mL"},
      {"measurement": "MIC", "setting": "Bacteroides fragilis; B. fragilis 103, 24-hour, Table 12", "value": 32, "unit": "µg/mL"},
      {"measurement": "MIC", "setting": "Bacteroides fragilis; B. fragilis 104, 24-hour, Table 12", "value": 32, "unit": "µg/mL"},
      {"measurement": "MIC", "setting": "Bacteroides fragilis; B. fragilis 106, 24-hour, Table 12", "value": 32, "unit": "µg/mL"},
      {"measurement": "MIC", "setting": "Bacteroides fragilis; B. fragilis 107, 24-hour, Table 12", "value": 32, "unit": "µg/mL"},
      {"measurement": "MIC", "setting": "Bacteroides fragilis; B. fragilis 108, 24-hour, Table 12", "value": 64, "unit": "µg/mL"},
      {"measurement": "MIC", "setting": "Bacteroides fragilis; B. fragilis 110, 24-hour, Table 12", "value": 64, "unit": "µg/mL"},
      {"measurement": "MIC", "setting": "Bacteroides fragilis; B. fragilis 111, 24-hour, Table 12", "value": 32, "unit": "µg/mL"},
      {"measurement": "MIC", "setting": "Bacteroides fragilis; B. fragilis 112, 24-hour, Table 12", "value": 32, "unit": "µg/mL"},
      {"measurement": "MIC", "setting": "Bacteroides fragilis; B. fragilis 113, 24-hour, Table 12", "value": 32, "unit": "µg/mL"},
      {"measurement": "MIC", "setting": "Bacteroides fragilis; B. fragilis 1451, 24-hour, Table 12", "value": 64, "unit": "µg/mL"},
      {"measurement": "MIC", "setting": "Bacteroides fragilis; B. fragilis 1470, 24-hour, Table 12", "value": 64, "unit": "µg/mL"},
      {"measurement": "MIC", "setting": "Bacteroides fragilis; B. fragilis 1877, 24-hour, Table 12", "value": 32, "unit": "µg/mL"},
      {"measurement": "MIC", "setting": "Bacteroides fragilis; B. fragilis 9032, 24-hour, Table 12", "value": 32, "unit": "µg/mL"},
      {"measurement": "MIC", "setting": "Bacteroides fragilis; Bacteroides fragilis 1877, Table 14", "value": 16, "unit": "µg/mL"},
      {"measurement": "MIC", "setting": "Bacteroides fragilis; Bacteroides fragilis 1936B, Table 14", "value": 32, "unit": "µg/mL"},
      {"measurement": "MIC", "setting": "Streptococcus pyogenes", "value": 1, "unit": "µg/mL"},
      {"measurement": "MIC", "setting": "[5]; Streptococcus sp. Group D 9960", "value": 4, "unit": "µg/mL"},
      {"measurement": "MIC", "setting": "[5]; Streptococcus sp. Group D X66", "value": 2, "unit": "µg/mL"},
      {"measurement": "MIC", "setting": "[6]; Ps. intermedius 1264", "value": "≤ 0.03", "unit": "µg/mL"},
      {"measurement": "MIC", "setting": "[6]; Ps. intermedius 1624", "value": 1.0, "unit": "µg/mL"},
      {"measurement": "MIC", "setting": "[7]; B. thetaiotaomicron 1438, 24-hour, Table 12", "value": 32, "unit": "µg/mL"},
      {"measurement": "MIC", "setting": "[7]; Bacteroides thetaiotaomicron 1438, Table 14", "value": 64, "unit": "µg/mL"},
      {"measurement": "MIC", "setting": "Clostridium perfringens", "value": 1.0, "unit": "µg/mL"},
      {"measurement": "MIC", "setting": "[8]", "value": 16, "unit": "µg/mL"},
      {"measurement": "ED50", "setting": "Staph. aureus", "value": "< 0.43", "unit": "mg/kg"}
    ]}
  ]
}
